Assays:
Experiment in all cases: apoptotic fraction of cells (caspase-3 NucView488 positive); higher = more apoptosis
[1] = system: WM115
Description: (§1)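 BRAF V600E/D melanoma cell lines were seeded in 96-well plates, treated in 4 replicates with seven doses (3.16 nM to 3.16 uM) of RAF/MEK inhibitors for 24, 48 or 72 h, and stained with Hoechst 33342 (nuclei) and DEVD-NucView488 caspase-3 substrate. Plates were imaged on an Operetta. Relative viability is the cell count normalised to a DMSO-treated control; apoptosis fraction is the fraction of NucView488-positive nuclei.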

[2] = system: RVH421
Description: as §1

[3] = system: SKMEL28
Description: as §1

[4] = system: LOXIMVI
Description: as §1

[5] = system: K2
Description: as §1

[6] = system: WM1552C
Description: as §1

[7] = system: MZ7MEL
Description: as §1

Cn1cnc2c(F)c(Nc3ccc(Br)cc3Cl)c(C(=O)NOCCO)cc21 [Selumetinib]
apoptotic fraction of cells
Conditions	0.00316 µM	0.01 µM	0.0316 µM	0.1 µM	0.316 µM	1 µM	3.16 µM
[1], 24 h	0.0496	0.0509	0.0515	0.0423	0.0578	0.102	0.143
[1], 48 h	0.0459	0.0343	0.0345	0.0394	0.072	0.186	0.269
[1], 72 h	0.0278	0.027	0.0324	0.0559	0.115	0.302	0.456
[2], 24 h	0.0531	0.0501	0.0442	0.0496	0.0515	0.0523	0.0612
[2], 48 h	0.0489	0.0601	0.0622	0.0642	0.0635	0.0671	0.0755
[2], 72 h	0.0328	0.0321	0.0318	0.0418	0.0438	0.0599	0.0977
[3], 48 h	0.0348	0.0333	0.0343	0.0355	0.0422	0.0573	0.0991
[3], 72 h	0.036	0.0338	0.0305	0.037	0.0563	0.111	0.214
[4], 24 h	0.0508	0.0393	0.0293	0.0452	0.0393	0.0476	0.0428
[4], 48 h	0.111	0.0778	0.0621	0.0589	0.0582	0.0523	0.0597
[4], 72 h	0.161	0.0676	0.0426	0.0445	0.0604	0.0759	0.105
[5], 24 h	0.00506	0.00321	0.00454	0.0128	0.0266	0.123	0.142
[5], 48 h	0.0027	0.00331	0.0058	0.0372	0.0691	0.199	0.332
[6], 24 h	0.0571	0.0689	0.0771	0.0894	0.0876	0.112	0.0803
[6], 48 h	0.065	0.0655	0.0575	0.0656	0.0753	0.0765	0.1
[6], 72 h	0.0885	0.073	0.0737	0.0814	0.104	0.146	0.19
[7], 24 h	0.0105	0.0133	0.0129	0.013	0.021	0.03	0.0358
[7], 48 h	0.02	0.0157	0.0142	0.0195	0.0385	0.0514	0.0696
[7], 72 h	0.0201	0.0173	0.0366	0.108	0.158	0.239	0.314

CCCS(=O)(=O)Nc1ccc(F)c(C(=O)c2c[nH]c3ncc(Cl)cc23)c1F [PLX4720]
apoptotic fraction of cells
Conditions	0.00316 µM	0.01 µM	0.0316 µM	0.1 µM	0.316 µM	1 µM	3.16 µM
[1], 24 h	0.0488	0.0373	0.0513	0.0369	0.0371	0.0643	0.0673
[1], 48 h	0.0421	0.0454	0.0356	0.0312	0.0333	0.0466	0.122
[1], 72 h	0.0312	0.0316	0.0268	0.0303	0.0415	0.129	0.381
[2], 24 h	0.0586	0.0457	0.0542	0.052	0.0578	0.0478	0.0574
[2], 48 h	0.0464	0.062	0.0512	0.05	0.058	0.0593	0.0831
[2], 72 h	0.0342	0.035	0.0338	0.0375	0.0466	0.051	0.0617
[3], 48 h	0.0324	0.0306	0.0349	0.035	0.0365	0.0401	0.0568
[3], 72 h	0.0401	0.0409	0.0321	0.0301	0.0373	0.0372	0.105
[4], 24 h	0.0547	0.0479	0.0396	0.0507	0.033	0.0507	0.0445
[4], 48 h	0.111	0.0809	0.0585	0.0482	0.0482	0.0654	0.113
[4], 72 h	0.211	0.144	0.074	0.0395	0.048	0.0542	0.159
[5], 24 h	0.00502	0.00388	0.00353	0.00321	0.00817	0.0503	0.153
[5], 48 h	0.00236	0.00224	0.00201	0.00525	0.0166	0.0858	0.173
[6], 24 h	0.0609	0.0582	0.0522	0.0708	0.0728	0.0756	0.0738
[6], 48 h	0.0618	0.0656	0.0655	0.0534	0.044	0.0563	0.0762
[6], 72 h	0.0768	0.0708	0.0682	0.063	0.0671	0.0953	0.129
[7], 24 h	0.013	0.0082	0.01	0.00501	0.00918	0.0127	0.0325
[7], 48 h	0.0158	0.0193	0.0129	0.0113	0.0205	0.0277	0.0483
[7], 72 h	0.0184	0.0171	0.0142	0.0198	0.0439	0.105	0.151
